| SMILES | melting point [°C] |
| --- | --- |
| C=C(c1cc(C(C)(C)C)cc2c1CCC2(C)C)c1sccc1C(=O)O [Example 12, 2-[1-(6-tert-Butyl-1,1-dimethylindan-4-yl)ethen-1-yl]-thiophene-3-carboxylic Acid] | 148 to 150 |
| C=C(c1cc(C(C)(C)C)cc2c1CCC2(C)C)c1sccc1C=O [Example 11, 2-[1-(6-tert-Butyl-1,1-dimethylindan-4-yl)ethen-1-yl]-thiophene-3-carboxaldehyde] | 148 to 150 |
| C=C(c1ccsc1C=O)c1cc(C(C)(C)C)cc2c1CCC2(C)C [Example 9, 3-[1-(6-tert-Butyl-1,1-dimethylindan-4-yl)ethen-1-yl]-thiophene-2-carboxaldehyde] | 99 to 100 |
| C=C(c1ccsc1C(=O)O)c1cc(C(C)(C)C)cc2c1CCC2(C)C [Example 10, 3-[1-(6-tert-Butyl-1,1-dimethylindan-4-yl)ethen-1-yl]-thiophene-2-carboxylic Acid] | 146 to 148 |

From patent US6642273B2, “Unsaturated derivatives at the 4-position of 6-tert-butyl-1,1-dimethylindane and their use in human and veterinary medicine and in cosmetics” (Galderma Research & Development, priority 1997, dated 2003)
